From US20220362223A1, “ORAL FORMULATION OF X842” (Cinclus Pharma Holding AB, priority 2019, published 2022)
≈ marks a conversion by molar mass, not a printed value.

Tests used:
[1] = Solubility of X842 in water; type: physicochemical
Excerpt: The solubility of X842 is very low. […] This low solubility is problematic for solid oral formulations, and especially for solid immediate release formulations where the active ingredient should dissolve in only a short time period.

gastric acid production [2] = assay: Clinical Phase I study of X842: intragastric pH / gastric acid control; type: in vivo, human
Description: (§1) X842 is a prodrug of linaprazan, which was disclosed in WO 99/55706 and previously studied in Phase I and II studies. […] A clinical Phase I study has shown that administration of a single dose of X842 can maintain the intragastric acidity above pH 4 for 24 hours. X842 is therefore tailored for patients with severe erosive gastroesophageal reflux disease (eGERD).
(§2) It is estimated that this requires a minimal plasma concentration (Cmin) of linaprazan of at least about 240 nmol/L after 22 hours. At such doses, a once daily administration of the formulation would be sufficient. Therefore, in another embodiment, the invention relates to a formulation as disclosed herein, wherein the formulation provides a Cmin of linaprazan in a human of at least about 240 nmol/L after 22 hours following administration of the oral formulation to said human. In a preferred embodiment, the invention relates to a formulation as disclosed herein, wherein a unit dose of the formulation provides a Cmin of linaprazan in a human of at least about 240 nmol/L after 22 hours following administration of the oral formulation to said human.

clinical = assay: clinical; set-up: species or system human; conditions: in vivo
Description: as §1, §2

gastric acid production [3] = conditions: Phase I and II studies; cited from earlier work

Row | SMILES | solubility in water ([1]; pH 6.8) | solubility ([1]; water, simulated gastric fluid, pH 1.0) [µg/mL] | control of gastric acid production (gastric acid production [2]; compared to linaprazan) | time intragastric acidity is maintained above pH 4 (gastric acid production [2]; single dose, clinical Phase I) [hours] | half-life in the body (clinical; human) | metabolism after absorption into the blood stream (clinical) | plasma concentration of X842 (clinical) | concentration at 22 h (clinical; human) [nM] | duration of acid inhibition (gastric acid production [3]) | elimination from the body (gastric acid production [3]) | onset of action / effect at first dose (gastric acid production [3]) | tolerability (gastric acid production [3])
1 | Cc1cccc(C)c1CNc1cc(C(=O)NCCOC(=O)CCCC(=O)O)cn2c(C)c(C)nc12 [Example X842, 5-{2[({8-[(2,6-dimethylbenzyl)amino]-2,3-dimethylimidazo[1,2-a]pyridine-6-yl}carbonyl)-amino]ethoxy}-5-oxopentanoic acid] | practically insoluble | ~113 (≈ 235 µM) | total control of the gastric acid production for a longer time | 24 | longer half-life | quickly metabolized into linaprazan | only very low and difficult to determine |  |  |  |  | 
2 | Cc1cccc(C)c1CNc1cc(C(=O)NCCO)cn2c(C)c(C)nc12 [linaprazan] |  |  |  |  |  |  |  | ≥ 240 | too short duration of acid inhibition | quickly eliminated from the body | fast onset of action and full effect at first dose | well tolerated
